Data as given in patent publication US11566002B2, “Substituted tetrahydrocyclopenta[C]pyrroles, substituted dihydropyrrolizines, analogues thereof, and methods using same” (priority 2018, dated 2023).
Read-outs that look alike come from different tables or passages of the source.

Tested on: HBV rcDNA
Assay: HepDE19 assay with bDNA quantitation of HBV rcDNA
Format: cell-based, hepatitis B virus
Method in brief: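 Cytotoxicity (CC50) measured by CellTiter-Glo ATP content in parallel plates, 5,000 cells/well, 4 days. Antiviral EC50 and EC90 derived from HBV rcDNA bDNA levels after 7-day compound exposure (top 25 μM, ½-log 8-point, 0.5% DMSO) of Tet-withdrawn HepDE19 cells at 50,000/well, as % inhibition versus untreated.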

[1] = HepDE19 cells, Tet-free medium, 7 day-incubation, rcDNA measured by Quantigene 2.0 bDNA assay, top concentration 25 μM, read-out: DE-19 bDNA EC50
[2] = read-out: DE-19 bDNA EC50, HepDE19 cells, Tet-free medium, 7 day-incubation, rcDNA measured by Quantigene 2.0 bDNA assay, top concentration 25 μM

Row | SMILES | EC50 [1] [µM] | other results
1 | Cn1c(Cl)c2c(c1C(=O)Nc1ccc(F)c(Cl)c1)CCC2NC(=O)OCc1nc[nH]n1 (single isomer, unassigned) [Compound 104, (1H-1,2,4-Triazol-3-yl)methyl (3-chloro-1-((3-chloro-4-fluorophenyl)carbamoyl)-2-methyl-2,4,5,6-tetrahydrocyclopenta[c]pyrrol-4-yl)carbamate] | 1.9 | –
2 | Cn1c(Cl)c2c(c1C(=O)Nc1ccc(F)c(Cl)c1)CCC2NC(=O)OCc1nc[nH]n1 (single isomer, unassigned) [Compound 105, (1H-1,2,4-Triazol-3-yl)methyl (3-chloro-1-((3-chloro-4-fluorophenyl)carbamoyl)-2-methyl-2,4,5,6-tetrahydrocyclopenta[c]pyrrol-4-yl)carbamate] | 0.01 | –
3 | Cn1c(Cl)c2c(c1C(=O)Nc1ccc(F)c(Cl)c1)CCC2NC(=O)OCc1cn[nH]n1 (single isomer, unassigned) [Compound 106, (2H-1,2,3-Triazol-4-yl)methyl (3-chloro-1-((3-chloro-4-fluorophenyl)carbamoyl)-2-methyl-2,4,5,6-tetrahydrocyclopenta[c]pyrrol-4-yl)carbamate] | 1.4 | –
4 | Cn1c(Cl)c2c(c1C(=O)Nc1ccc(F)c(Cl)c1)CCC2NC(=O)OCc1cn[nH]n1 (single isomer, unassigned) [Compound 107, (2H-1,2,3-Triazol-4-yl)methyl (3-chloro-1-((3-chloro-4-fluorophenyl)carbamoyl)-2-methyl-2,4,5,6-tetrahydrocyclopenta[c]pyrrol-4-yl)carbamate] | 0.01 | –
5 | Cn1cnc(COC(=O)NC2CCc3c2c(-c2ccccc2)n(C)c3C(=O)Nc2ccc(F)c(Cl)c2)n1 (single isomer, unassigned) [Compound 108, (1-Methyl-1H-1,2,4-triazol-3-yl)methyl (1-((3-chloro-4-fluorophenyl)carbamoyl)-2-methyl-3-phenyl-2,4,5,6-tetrahydrocyclopenta[c]pyrrol-4-yl)carbamate] | – | EC50 [2]: 5.2 µM
6 | Cn1cnc(COC(=O)NC2CCc3c2c(-c2ccccc2)n(C)c3C(=O)Nc2ccc(F)c(Cl)c2)n1 (single isomer, unassigned) [Compound 109, (1-Methyl-1H-1,2,4-triazol-3-yl)methyl (1-((3-chloro-4-fluorophenyl)carbamoyl)-2-methyl-3-phenyl-2,4,5,6-tetrahydrocyclopenta[c]pyrrol-4-yl)carbamate] | – | EC50 [2]: 24 µM
7 | CC#CCOC(=O)NC1CCc2c1cn(C)c2C(=O)Nc1ccc(F)c(Cl)c1 (single isomer, unassigned) [Compound 110, But-2-yn-1-yl (1-((3-chloro-4-fluorophenyl)carbamoyl)-2-methyl-2,4,5,6-tetrahydrocyclopenta[c]pyrrol-4-yl)carbamate] | – | EC50 [2]: 1.5 µM
8 | CC#CCOC(=O)NC1CCc2c1cn(C)c2C(=O)Nc1ccc(F)c(Cl)c1 (single isomer, unassigned) [Compound 111, But-2-yn-1-yl (1-((3-chloro-4-fluorophenyl)carbamoyl)-2-methyl-2,4,5,6-tetrahydrocyclopenta[c]pyrrol-4-yl)carbamate] | – | EC50 [2]: 0.06 µM
9 | CCC#CCOC(=O)NC1CCc2c1cn(C)c2C(=O)Nc1ccc(F)c(Cl)c1 (single isomer, unassigned) [Compound 112, Pent-2-yn-1-yl(1-((3-chloro-4-fluorophenyl)carbamoyl)-2-methyl-2,4,5,6-tetrahydrocyclopenta[c]pyrrol-4-yl)carbamate] | – | EC50 [2]: 5.7 µM
10 | CCC#CCOC(=O)NC1CCc2c1cn(C)c2C(=O)Nc1ccc(F)c(Cl)c1 (single isomer, unassigned) [Compound 113, Pent-2-yn-1-yl(1-((3-chloro-4-fluorophenyl)carbamoyl)-2-methyl-2,4,5,6-tetrahydrocyclopenta[c]pyrrol-4-yl)carbamate] | – | EC50 [2]: 0.12 µM
11 | Cn1cc2c(c1C(=O)Nc1ccc(F)c(Cl)c1)CCC2NC(=O)OCC#CC1CC1 (single isomer, unassigned) [Compound 114, 3-Cyclopropylprop-2-yn-1-yl (1-((3-chloro-4-fluorophenyl)carbamoyl)-2-methyl-2,4,5,6-tetrahydrocyclopenta[c]pyrrol-4-yl)carbamate] | 0.47 | –
12 | Cn1cc2c(c1C(=O)Nc1ccc(F)c(Cl)c1)CCC2NC(=O)OCC#CC1CC1 (single isomer, unassigned) [Compound 115, 3-Cyclopropylprop-2-yn-1-yl (1-((3-chloro-4-fluorophenyl)carbamoyl)-2-methyl-2,4,5,6-tetrahydrocyclopenta[c]pyrrol-4-yl)carbamate] | 5.4 | –
13 | Cn1cc(COC(=O)NC2CCc3c2cn(C)c3C(=O)Nc2ccc(F)c(Cl)c2)nn1 (single isomer, unassigned) [Compound 116, (1-Methyl-1H-1,2,3-triazol-4-yl)methyl (1-((3-chloro-4-fluorophenyl)carbamoyl)-2-methyl-2,4,5,6-tetrahydrocyclopenta[c]pyrrol-4-yl)carbamate] | 0.05 | –
14 | Cn1cc(COC(=O)NC2CCc3c2cn(C)c3C(=O)Nc2ccc(F)c(Cl)c2)nn1 (single isomer, unassigned) [Compound 117, (1-Methyl-1H-1,2,3-triazol-4-yl)methyl (1-((3-chloro-4-fluorophenyl)carbamoyl)-2-methyl-2,4,5,6-tetrahydrocyclopenta[c]pyrrol-4-yl)carbamate] | 6.1 | –
15 | Cn1cc2c(c1C(=O)Nc1ccc(F)c(Cl)c1)CCC2NC(=O)OC[C@@H]1CCC(=O)N1 (single isomer, unassigned) [Compound 118] | 0.16 | –
16 | Cn1cc2c(c1C(=O)Nc1ccc(F)c(Cl)c1)CCC2NC(=O)OC[C@@H]1CCC(=O)N1 (single isomer, unassigned) [Compound 119] | 1.9 | –
17 | Cn1cc2c(c1C(=O)Nc1ccc(F)c(Cl)c1)CCC2NC(=O)OC[C@H]1CCC(=O)N1 (single isomer, unassigned) [Compound 120] | 0.21 | –
18 | Cn1cc2c(c1C(=O)Nc1ccc(F)c(Cl)c1)CCC2NC(=O)OC[C@H]1CCC(=O)N1 (single isomer, unassigned) [Compound 121] | 4 | –
19 | Cn1c(Br)c2c(c1C(=O)Nc1ccc(F)c(Cl)c1)CCC2NC(=O)OCc1nc[nH]n1 (single isomer, unassigned) [Compound 125, (1H-1,2,4-Triazol-3-yl)methyl(3-bromo-1-((3-chloro-4-fluorophenyl)carbamoyl)-2-methyl-2,4,5,6-tetrahydrocyclopenta[c]pyrrol-4-yl)carbamate] | – | EC50 (Hepatitis B virus, HepDE19, 168 h, read-out: DE-19 bDNA EC50 (μM), HepDE19 cells, Tet-free medium, 7 day-incubation, rcDNA measured by Quantigene 2.0 bDNA assay, top concentration 25 μM): 0.04 µM
20 | Cn1c(C(=O)Nc2ccc(F)c(Cl)c2)c2c(c1C(F)(F)F)C(NC(=O)OCc1nc[nH]n1)CC2 (single isomer, unassigned) [Compound 126, (1H-1,2,4-Triazol-3-yl)methyl (1-((3-chloro-4-fluorophenyl)carbamoyl)-2-methyl-3-(trifluoromethyl)-2,4,5,6-tetrahydrocyclopenta[c]pyrrol-4-yl)carbamate] | 8.7 | –
21 | Cn1c(C(=O)Nc2ccc(F)c(Cl)c2)c2c(c1C(F)(F)F)C(NC(=O)OCc1nc[nH]n1)CC2 (single isomer, unassigned) [Compound 127, (1H-1,2,4-Triazol-3-yl)methyl (1-((3-chloro-4-fluorophenyl)carbamoyl)-2-methyl-3-(trifluoromethyl)-2,4,5,6-tetrahydrocyclopenta[c]pyrrol-4-yl)carbamate] | 0.44 | –
22 | Cn1ncc(COC(=O)NC2CCc3c2cn(C)c3C(=O)Nc2ccc(F)c(Cl)c2)n1 (single isomer, unassigned) [Compound 128, (2-Methyl-2H-1,2,3-triazol-4-yl)methyl (1-((3-chloro-4-fluorophenyl)carbamoyl)-2-methyl-2,4,5,6-tetrahydrocyclopenta[c]pyrrol-4-yl)carbamate] | 1.7 | –
23 | Cn1ncc(COC(=O)NC2CCc3c2cn(C)c3C(=O)Nc2ccc(F)c(Cl)c2)n1 (single isomer, unassigned) [Compound 129, (2-Methyl-2H-1,2,3-triazol-4-yl)methyl (1-((3-chloro-4-fluorophenyl)carbamoyl)-2-methyl-2,4,5,6-tetrahydrocyclopenta[c]pyrrol-4-yl)carbamate] | 0.04 | –
24 | Cc1c2c(c(C(=O)Nc3ccc(F)c(Cl)c3)n1C)CCC2NC(=O)OCc1c[nH]nn1 (single isomer, unassigned) [Compound 130, (1H-1,2,3-Triazol-4-yl)methyl (1-((3-chloro-4-fluorophenyl)carbamoyl)-2,3-dimethyl-2,4,5,6-tetrahydrocyclopenta[c]pyrrol-4-yl)carbamate] | 9 | –
25 | Cc1c2c(c(C(=O)Nc3ccc(F)c(Cl)c3)n1C)CCC2NC(=O)OCc1c[nH]nn1 (single isomer, unassigned) [Compound 131, (1H-1,2,3-Triazol-4-yl)methyl (1-((3-chloro-4-fluorophenyl)carbamoyl)-2,3-dimethyl-2,4,5,6-tetrahydrocyclopenta[c]pyrrol-4-yl)carbamate] | 1.7 | –
26 | Cn1c(C(=O)Nc2ccc(F)c(Cl)c2)c2c(c1C(F)(F)F)C(NC(=O)OCc1cn[nH]n1)CC2 (single isomer, unassigned) [Compound 132, (2H-1,2,3-Triazol-4-yl)methyl (1-((3-chloro-4-fluorophenyl)carbamoyl)-2-methyl-3-(trifluoromethyl)-2,4,5,6-tetrahydrocyclopenta[c]pyrrol-4-yl)carbamate] | 13 | –
27 | Cn1c(C(=O)Nc2ccc(F)c(Cl)c2)c2c(c1C(F)(F)F)C(NC(=O)OCc1cn[nH]n1)CC2 (single isomer, unassigned) [Compound 133, (2H-1,2,3-Triazol-4-yl)methyl (1-((3-chloro-4-fluorophenyl)carbamoyl)-2-methyl-3-(trifluoromethyl)-2,4,5,6-tetrahydrocyclopenta[c]pyrrol-4-yl)carbamate] | 0.43 | –
